Experimental data as given in patent US12281225B2, “Process for preparing stable polymers containing vinylimidazole” (BASF SE, priority 2018, dated 2025).

How the values were obtained:
Assay type in all cases: physicochemical
[1] = Iodine color number according to DIN 6162:2014-09
[2] = Physical stability; visual assessment (color, turbidity, phase separation); parameters: key: ++: no discernible change with respect to color, turbidity or phase separation; +: marginal change in color number, somewhat increased Tyndall effect but no turbidity; 0: easily discernible increase in color number and moderate turbidity−no phase separation; −: turbidity and change in color number readily discernible by visual assessment; −−: strong color change with strong turbidity and incipient phase separation
Source text: Physical stability; visual assessment according to:
++=no discernible change with respect to color, turbidity or phase separation; +=marginal change in color number, somewhat increased Tyndall effect but no turbidity; 0=easily discernible increase in color number and moderate turbidity−no phase separation; − turbidity and change in color number readily discernible by visual assessment; −− strong color change with strong turbidity and incipient phase separation.
Before storage, all batches could be rated ++ (no turbidity or phase separation; no influence of the biocide on the color number of the product).

[3] = Analysis of active substance: preservative concentration before and after storage in VI-containing polymer solution; details: for active-substance concentration, 0 d, RT: before storage; for active-substance concentration, 14 d, 40° C.: storage 14 d at 40° C.; for active-substance concentration, 28 d, 40° C.: storage 28 d at 40° C.; for active-substance concentration, 60 d 40° C.: storage 60 d at 40° C.
Procedure: Stability of Preservatives in VI-Containing Polymers:
The following stabilizers for VI-containing polymers (here: aqueous solution of a copolymer of vinylpyrrolidone and vinylimidazole) were tested.
MIT, BIT, CMIT, OIT, DCOIT and iodopropynyl butyl carbamate were determined by RP chromatography with UV detection after dilution of the sample to be tested. An RP18 column was used for this purpose, with an eluent composed of an acid-methanol mixture under isocratic conditions.

[4] = Polymer P5 (HP56) with stabilizer

## benzalkonium chloride [BAC]
[1]; Polymer P1 with stabilizer
  Iodine color number, 60 d 40° C.: 2.8
  Iodine color number, start: 2.6
[1]; Polymer P2 with stabilizer
  Iodine color number, 60 d 40° C.: 3.2
  Iodine color number, start: 3.0
[1]; Polymer P3 with stabilizer
  Iodine color number, 60 d 40° C.: 3.3
  Iodine color number, start: 3.2
[1]; Polymer P4 with stabilizer
  Iodine color number, 60 d 40° C.: 3.3
  Iodine color number, start: 3.2
[1]; [4]
  Iodine color number, 60 d 40° C.: 3.3
  Iodine color number, start: 3.3
[1]; Polymer P6 with stabilizer
  Iodine color number, 60 d 40° C.: 3.4
  Iodine color number, start: 3.3
[1]; Polymer P7 with stabilizer
  Iodine color number, 60 d 40° C.: 3.4
  Iodine color number, start: 3.3
[1]; Polymer P8 with stabilizer
  Iodine color number, 60 d 40° C.: 3.4
  Iodine color number, start: 3.3
[1]; Polymer P9 with stabilizer
  Iodine color number, 60 d 40° C.: 4.0
  Iodine color number, start: 3.7
[2]; Polymer P1 with stabilizer
  Physical stability, 60 d 40° C.*: +
[2]; Polymer P2 with stabilizer
  Physical stability, 60 d 40° C.*: +
[2]; Polymer P3 with stabilizer
  Physical stability, 60 d 40° C.*: ++
[2]; Polymer P4 with stabilizer
  Physical stability, 60 d 40° C.*: +
[2]; [4]
  Physical stability, 60 d 40° C.*: +
[2]; Polymer P6 with stabilizer
  Physical stability, 60 d 40° C.*: +
[2]; Polymer P7 with stabilizer
  Physical stability, 60 d 40° C.*: ++
[2]; Polymer P8 with stabilizer
  Physical stability, 60 d 40° C.*: +
[2]; Polymer P9 with stabilizer
  Physical stability, 60 d 40° C.*: +
[3]; in Polymer P1
  active-substance concentration, 0 d, RT: 1000 ppm
  active-substance concentration, 14 d, 40° C.: 990 ppm
  active-substance concentration, 28 d, 40° C.: 990 ppm
  active-substance concentration, 60 d 40° C.: 970 ppm
[3]; in Polymer P2
  active-substance concentration, 0 d, RT: 1000 ppm
  active-substance concentration, 14 d, 40° C.: 990 ppm
  active-substance concentration, 28 d, 40° C.: 990 ppm
  active-substance concentration, 60 d 40° C.: 970 ppm
[3]; in Polymer P3
  active-substance concentration, 0 d, RT: 1000 ppm
  active-substance concentration, 14 d, 40° C.: 970 ppm
  active-substance concentration, 28 d, 40° C.: 973 ppm
  active-substance concentration, 60 d 40° C.: 967 ppm
[3]; in Polymer P4
  active-substance concentration, 0 d, RT: 1000 ppm
  active-substance concentration, 14 d, 40° C.: 1000 ppm
  active-substance concentration, 28 d, 40° C.: 991 ppm
  active-substance concentration, 60 d 40° C.: 977 ppm
[3]; in Polymer P5 (HP56)
  active-substance concentration, 0 d, RT: 1000 ppm
  active-substance concentration, 14 d, 40° C.: 990 ppm
  active-substance concentration, 28 d, 40° C.: 90 ppm
  active-substance concentration, 60 d 40° C.: 970 ppm
[3]; in Polymer P6
  active-substance concentration, 0 d, RT: 1000 ppm
  active-substance concentration, 14 d, 40° C.: 990 ppm
  active-substance concentration, 28 d, 40° C.: 981 ppm
  active-substance concentration, 60 d 40° C.: 976 ppm
[3]; in Polymer P7
  active-substance concentration, 0 d, RT: 1000 ppm
  active-substance concentration, 14 d, 40° C.: 988 ppm
  active-substance concentration, 28 d, 40° C.: 985 ppm
  active-substance concentration, 60 d 40° C.: 979 ppm
[3]; in Polymer P8
  active-substance concentration, 0 d, RT: 1000 ppm
  active-substance concentration, 14 d, 40° C.: 990 ppm
  active-substance concentration, 28 d, 40° C.: 990 ppm
  active-substance concentration, 60 d 40° C.: 970 ppm
[3]; in Polymer P9
  active-substance concentration, 0 d, RT: 1000 ppm
  active-substance concentration, 14 d, 40° C.: 990 ppm
  active-substance concentration, 28 d, 40° C.: 985 ppm
  active-substance concentration, 60 d 40° C.: 975 ppm
